Several values for one entry are separate records, joined by “and”; a condition that tells them apart may be missing. Equal entries are not always repeated.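 Growth conditions: 96-well plates. Treatment: test compound, 48 hours, 5 concentrations. Analysis: linear interpolation between bracketing concentrations; unreached endpoints set to highest concentration. GI50 = concentration required for 50% inhibition of growth. Definition used: TGI = concentration required for complete inhibition of growth.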
Tested on: MDA-MB-468 breast
Experiment: DTP human tumour cell line panel, 48 h

SMILES | GI50 | TGI
C=CC(=O)NCc1cccc(Nc2ncc(Br)c(NCCCNC(=O)C3CCC3)n2)c1 | 1640 nM and 1020 nM | 4.33 µM and 5 µM
CN(Cc1cc(Br)cc(Br)c1O)Cc1cc(Br)cc(Br)c1O | 2090 nM | 13 µM
Nc1ncc(-c2ccc3ncnc(N4CCc5cc(F)c(Cl)cc54)c3c2)cn1 | 804 nM | 3.04 µM
Cc1ccc(-c2cc3c(SCC(=O)Nc4cc(C(F)(F)F)ccc4Cl)nccn3n2)cc1 | > 100000 nM | > 100 µM
Cc1ccc(C(SCC(N)C(=O)O)(c2ccc(C)cc2)c2ccc(C)cc2)cc1 (stereo not drawn) | 1460 nM | 16.6 µM
Cc1ccccc1-n1ncc(C(=O)c2ccccc2)c1N | > 25000 nM | > 25 µM
O=C(c1ccccc1)c1ccc(Oc2ccc([N+](=O)[O-])cc2[N+](=O)[O-])cc1 | 1730 nM | 3.38 µM
COc1ccc(C(SCC(N)C(=O)O)(c2ccccc2)c2ccccc2)cc1 (stereo not drawn) | 62.7 nM | > 78.1 µM
O=C(/C(=C\c1ccc([N+](=O)[O-])cc1)S(=O)Cc1ccc(F)cc1)c1ccc(F)cc1 (stereo not drawn) | 2050 nM | 4.36 µM
CN(C)c1ccc(N=C2C=CC(=[N+](C)C)C=C2)cc1 | 3040 nM | 12.2 µM
Nc1nc(OCc2cc(Br)cs2)c2[nH]cnc2n1 | 14000 nM | 58.6 µM
C/C(=C\CCc1ccoc1)CC/C=C(\C)CCCN1CCOCC1 | 2580 nM | 9.59 µM
O=C1C(=O)c2c(nc3ccc(Br)cn23)-c2ccccc21 | 1530 nM | 3.22 µM
Clc1ccc2c(c1)N(c1ncnc3ccc(-c4cnc5[nH]ccc5c4)cc13)CC2 | 380 nM | 13.7 µM
COC(=O)[C@]12CC[C@@H](C)[C@H](C)[C@@H]1C1=CC[C@@H]3[C@@]4(C)C(C=O)=C[C@@](C)(COC(C)=O)C4=CC[C@@]3(C)[C@]1(C)CC2 | 4210 nM | 17.7 µM
Cn1cc(C2=C(c3cn(C)c4c([N+](=O)[O-])cccc34)C(=O)NC2=O)c2ccccc21 | > 25000 nM | > 25 µM
C[C@H](Nc1ncnc2nc[nH]c12)c1cc2ccc(F)cc2nc1-c1ccccn1 | 31900 nM | > 100 µM
[O-][n+]1ccccc1S | 4150 nM | 45.2 µM
c1cc2[nH]ncc2cc1-c1nc2ccc3[nH]ncc3c2c2c1CCCC2 | 403 nM | 3.16 µM
COc1ccc(C(=O)c2cc(OC)c(OC)c(OC)c2)cc1/C=C/C(=O)c1ccc(OC)c(OC)c1 | 1250 nM | 77.7 µM
COc1cc2nc(SCC(=O)Nc3cc(OC)c(OC)c(OC)c3)n(Cc3ccccc3)c(=O)c2cc1OC | 5720 nM | 20.2 µM
Cc1cc(O)ccc1C1=NN(c2ccc(S(C)(=O)=O)cc2)C(=O)CC1 | 11000 nM | 44.3 µM
O=C1c2nsnc2C(=O)c2c(F)c(F)c(F)c(F)c21 | 672 nM | 2.32 µM
Nc1nc2c(s1)CCc1c-2c(Br)n(Cc2ccccc2)c1Br | 2840 nM | 17.2 µM

SMILES | GI50 | TGI
CCCCCCCCCCCCCC1=NCCN1CCO | 2120 nM | 5.58 µM
CC(=O)c1cc(C(=O)c2ccc3c(c2)Sc2ccccc2N3)c2c(C)cc(C)cn12 | 496 nM | > 100 µM
Cc1ccc(-c2cc(C(F)(F)F)nn2-c2ccc(S(N)(=O)=O)cc2)cc1 | 24200 nM | 90.7 µM
CC1(C)CCC2=C(O1)c1ccccc1C(=O)C2=O | 1680 nM | 3.36 µM
NC1CCC(Nc2nc(NCc3ccc(-c4cccs4)nc3)c3ncn(C4CCCC4)c3n2)CC1 (stereo not drawn) | < 13.4 nM | 0.035 µM
CC1=CC(=C(c2ccc(N)cc2)c2ccc(N)cc2)C=CC1=N | 373 nM and 411 nM | 4.9 µM and 4.3 µM
O=C1NC(=O)C(=C/C=C/c2ccccc2)C(=O)N1 | 2990 nM | 10.1 µM
CCOC(=O)n1cc(C2=C(c3cn(C)c4ccccc34)COC2=O)c2ccccc21 | 53 nM | > 100 µM
NC(=O)c1ccc(NN=O)nc1 | > 100000 nM | > 100 µM
Clc1cccc(Cl)c1C1CSc2ccccc2N=C1c1ccccc1 (stereo not drawn) | 9590 nM | 29.2 µM
CS(=O)(=O)Nc1ccc(-c2cc(-c3ccccc3)cc(C(N)=O)c2N)cc1 | 14500 nM | > 25 µM
CC(C)(C)C(=O)OCOP(=O)(OCOC(=O)C(C)(C)C)C1CC(O)N(O)C1=O (stereo not drawn) | 5840 nM | > 100 µM
CCCNNC(=O)c1ccc(-c2ccc(NC(=O)CCCCCCC(=O)N[C@H](C(=O)N3C[C@H](O)C[C@H]3C(=O)N[C@@H](C)c3ccc(-c4scnc4C)cc3)C(C)(C)C)cc2)cc1 | 592 nM | 
Cl.Fc1c[c-]c(-c2ccccn2)c(F)c1.[Pt].c1ccc(P(c2ccccc2)C([PH+](c2ccccc2)c2ccccc2)[PH+](c2ccccc2)c2ccccc2)cc1 | 2690 nM | 19.5 µM
COc1ccc(C(=O)COC(=O)[C@H](C[Se][Se]C[C@H](NC(=O)c2ccc(Br)cc2F)C(=O)OCC(=O)c2ccc(OC)cc2)NC(=O)c2ccc(Br)cc2F)cc1 | 1720 nM | 3.85 µM
COC1CCN(C(=O)c2cc(Cc3n[nH]c(=O)c4ccccc34)ccc2F)CC1 | 30000 nM | > 100 µM
Clc1ccc2c(c1)N(CCCN1CCCC1)c1ccccc1S2 | 2750 nM | 8.05 µM
CCCCCCCCN(CCCCCCCC)CCCCCCNc1cc(OC)cc2cccnc12 | 3710 nM | 13.5 µM
COc1cc(-c2nc3ccccc3s2)ccc1NC(=O)COc1ccc(Cl)cc1 | 2080 nM | 56.6 µM
O=[N+]([O-])c1ccccc1N/N=C\c1c[nH]c2ccccc12 | 1130 nM | 5.85 µM
O=C1Nc2c(C(F)(F)F)cccc2[C@@]1(c1ccc(O)cc1)c1ccc(OC(F)(F)F)cc1 | < 10 nM | < 0.01 µM
CCN1C(=O)N(CC)C2Nn3c(s/c(=C\c4ccccc4Br)c3=O)=NC21 (stereo not drawn) | 1100 nM | 6.87 µM
COc1ccc2c(c1)[nH]c(=O)c1c3cc(OC)ccc3cn21 | 39.3 nM | 1.16 µM

Source: PubChem BioAssay (NCI)
